Source: the supplement of paper PMC10331698
± gives the standard deviation of the averaged measurements.

How the values were obtained:
Test in all cases: level (log10 ratio to DMSO vehicle control); higher = higher biomarker level / cell amount than vehicle control
Conditions in all cases: in DMSO
[1] = compound: CCN(CCO)S(=O)(=O)C(F)(F)C(F)(F)C(F)(F)C(F)(F)C(F)(F)C(F)(F)C(F)(F)C(F)(F)F [N-Ethyl-N-(2-hydroxyethyl)perfluorooctanesulfonamide]
Experimental: (§1)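 BioMAP Diversity Plus panel of 12 human primary cell co-culture systems (3C, 4H, LPS, SAg, BT, BF4T, BE3C, CASM3C, HDF3CGF, KF3CT, MyoF, Mphg). Compounds were added 1 h before stimulation and left for 24 h (MyoF 48 h; BT 72 h for soluble read-outs or 6 d for IgG). Biomarkers were read by ELISA, cytotoxicity by SRB, PBMC viability and proliferation by Alamar Blue. Each well value was divided by the mean of 8 DMSO control wells on the same plate and log10 transformed; duplicate blinded samples were tested at 4 concentrations.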

Perfluorodecanoic acid = compound: O=C(O)C(F)(F)C(F)(F)C(F)(F)C(F)(F)C(F)(F)C(F)(F)C(F)(F)C(F)(F)C(F)(F)F [Perfluorodecanoic acid]
Experimental: as §1

[2] = compound: NCC(F)(F)C(F)(F)C(F)(F)C(F)(F)C(F)(F)C(F)(F)C(F)(F)F [1H,1H-Perfluorooctylamine]
Experimental: as §1

[3] = compound: O=C(O)C(F)(F)C(F)(F)C(F)(F)C(F)(F)C(F)(F)C(F)(F)C(F)(F)C(F)F [9-H-Perfluorononanoic acid]
Experimental: as §1

Perfluoro-1-iodohexane = compound: FC(F)(F)C(F)(F)C(F)(F)C(F)(F)C(F)(F)C(F)(F)I [Perfluoro-1-iodohexane]
Experimental: as §1

Pentafluoropropionamide = compound: NC(=O)C(F)(F)C(F)(F)F [Pentafluoropropionamide]
Experimental: as §1

[4] = compound: O=C(O)C(F)(F)OC(F)(F)C(F)(F)OC(F)(F)F [Perfluoro-3,6-dioxaheptanoic acid]
Experimental: as §1

Test System | level (log10) ([1]; 6700 nM) | level (log10) ([1]; 20000 nM) | level (log10) (Perfluorodecanoic acid; 6700 nM) | level (log10) (Perfluorodecanoic acid; 20000 nM) | level (log10) ([2]; 6700 nM) | level (log10) ([2]; 20000 nM) | level (log10) ([2]; 60000 nM) | level (log10) ([3]; 6700 nM) | level (log10) ([3]; 20000 nM) | level (log10) ([3]; 60000 nM) | level (log10) (Perfluoro-1-iodohexane; 6700 nM) | level (log10) (Perfluoro-1-iodohexane; 20000 nM) | level (log10) (Perfluoro-1-iodohexane; 60000 nM) | level (log10) (Pentafluoropropionamide; 6700 nM) | level (log10) (Pentafluoropropionamide; 20000 nM) | level (log10) (Pentafluoropropionamide; 60000 nM) | level (log10) ([4]; 6700 nM) | level (log10) ([4]; 20000 nM) | level (log10) ([4]; 60000 nM)
lMphg:CD106/VCAM-1 | -0.037 ± 0.03 | -0.0435 ± 0.035 | 0.004 ± 0.0014 | -0.0145 ± 0.053 | -0.005 ± 0.0014 | -0.003 ± 0.014 | -0.0165 ± 0.005 | -0.008 ± 0.018 | 0.0185 ± 0.00071 | 0.0075 ± 0.023 | 0.0085 ± 0.032 | -0.0035 ± 0.018 | -0.003 ± 0.0099 | 0.0015 ± 0.033 | -0.009 ± 0.021 | -0.0045 ± 0.043 | -0.004 ± 0.02 | 0.007 ± 0.014 | -0.004 ± 0.04
MyoF:CXCL8/IL-8 | -0.193 ± 0.011 | -0.12 ± 0.022 | 0.0205 ± 0.037 | 0.0085 ± 0.016 | 0.0025 ± 0.021 | -0.0095 ± 0.0035 | -0.002 ± 0.023 | 0.021 ± 0.023 | 0.003 ± 0.013 | -0.001 ± 0.023 | 0.021 ± 0.041 | 0.023 ± 0.041 | 0.0385 ± 0.028 | -0.031 ± 0.013 | -0.026 ± 0.016 | 0.013 ± 0.045 | -0.0255 ± 0.08 | -0.0035 ± 0.03 | 0.0435 ± 0.019
lMphg:SRB-Mphg | 0.0095 ± 0.00071 | 0.001 ± 0.021 | 0.0065 ± 0.00071 | -0.005 ± 0.0085 | -0.0055 ± 0.005 | -0.007 ± 0.0042 | 0.0055 ± 0.032 | 0.0225 ± 0.018 | 0.043 ± 0.013 | 0.0175 ± 0.032 | 0.002 ± 0.0057 | -0.006 ± 0.0028 | 0.0025 ± 0.029 | -0.0135 ± 0.074 | 0.0555 ± 0.043 | 0.0595 ± 0.0078 | -0.053 ± 0.0014 | -0.079 ± 0.13 | -0.076 ± 0.19
BE3C:uPA | -0.0025 ± 0.022 | -0.018 ± 0.031 | -0.0025 ± 0.011 | -0.38 ± 0.0099 | -0.011 ± 0.011 | -0.0135 ± 0.0021 | -0.002 ± 0.014 | 0.0085 ± 0.0021 | 0.003 ± 0.014 | -0.002 ± 0.0028 | 0.0175 ± 0.015 | -0.0005 ± 0.0035 | 0.001 ± 0.0085 | -0.0305 ± 0.028 | -0.0265 ± 0.015 | -0.011 ± 0.014 | -0.0495 ± 0.079 | -0.028 ± 0.069 | -0.011 ± 0.041
3C:CD54/ICAM-1 | 0.03 ± 0.013 | 0.075 ± 0.065 | 0.0105 ± 0.0021 | 0.015 ± 0.0071 | -0.0105 ± 0.028 | -0.0125 ± 0.039 | -0.015 ± 0.025 | -0.006 | -0.0055 ± 0.0092 | 0.008 ± 0.013 | 0 ± 0.0057 | 0.0025 ± 0.0078 | 0.012 ± 0.0014 | 0.0035 ± 0.0035 | -0.0105 ± 0.016 | 0.008 ± 0.014 | -0.0325 ± 0.0064 | -0.0165 ± 0.019 | 0.0035 ± 0.005
CASM3C:CCL2/MCP-1 | 0.003 ± 0.017 | -0.017 ± 0.0057 | 0.006 ± 0.02 | 0 ± 0.0042 | -0.0145 ± 0.044 | -0.0245 ± 0.0092 | 0.009 ± 0.04 | 0.0125 ± 0.0092 | -0.0015 ± 0.00071 | 0.017 ± 0.0071 | 0.006 ± 0.0099 | -0.0085 ± 0.019 | 0.0015 ± 0.049 | -0.003 ± 0.021 | -0.01 ± 0.0014 | 0.0075 ± 0.013 | -0.0445 ± 0.09 | -0.0325 ± 0.067 | -0.039 ± 0.095
KF3CT:CXCL10/IP-10 | -0.0395 ± 0.022 | -0.107 ± 0.015 | -0.044 ± 0.017 | -0.134 ± 0.028 | -0.0045 ± 0.00071 | -0.0075 ± 0.011 | -0.003 | -0.0155 ± 0.0021 | -0.0265 ± 0.0064 | -0.039 ± 0.0099 | 0.005 ± 0.0014 | 0.001 ± 0.0028 | 0.0065 ± 0.0092 | -0.007 ± 0.0014 | 0 ± 0.0028 | -0.0145 ± 0.0035 | -0.0085 ± 0.00071 | -0.0055 ± 0.005 | 0.003 ± 0.013
HDF3CGF:CXCL11/I-TAC | -0.0535 ± 0.046 | -0.172 ± 0.041 | 0.046 ± 0.0014 | -0.469 ± 0.28 | -0.0135 ± 0.035 | -0.021 ± 0.033 | -0.046 ± 0.078 | -0.059 ± 0.0085 | -0.078 ± 0.0099 | -0.09 ± 0.021 | -0.0215 ± 0.011 | -0.0305 ± 0.016 | -0.183 ± 0.15 | 0.0135 ± 0.0035 | 0.0195 ± 0.018 | 0.022 ± 0.024 | -0.017 ± 0.0057 | -0.0035 ± 0.022 | -0.0035 ± 0.012
